Results reported in US8071142B2, “Anti-bacterial use of extract from Morus australis poir. and compound kuwanon h” (Medical and Pharmaceutical Industry Technology and …, priority 2008, dated 2011).
Values after ≈ are worked out from the molar mass of the structure shown. Read-outs that look alike come from different tables or passages of the source.

Assays:
Format in all cases: cell-based
[1] = system: Staphylococcus aureus (Smith); assay: Anti-microbial test, MIC by broth dilution method, Staphylococcus aureus (Smith); details: for MIC: Staphylococcus aureus, read-out: MIC SA (Smith)
Procedure: (§1) Staphylococcus aureus (Smith), and Staphylococcus aureus, Methicillin Resistant (ATCC 33591), In Vitro Bacteria
(§2) Minimum inhibitory concentration (MIC) of sample on Staphylococcus aureus (Smith) and Staphylococcus aureus, Methicillin Resistant (ATCC 33591) was determined by the broth dilution method [Edwards J. R. et al. In vitro antibacterial activity of SM-7338, a carbapenem antibiotic with stability to dehydropeptidase I. Antimicrobial Agents Chemotherapy. 33: pp. 215-222, 1989]. The test substance was dissolved (generally 100% DMSO) and serially diluted in solvent to desired stock concentrations. For each concentration tested, a 0.01 ml aliquot (1% DMSO final concentration) was added to a 48-well plate after which 0.99 ml of Mueller-Hinton Broth (DIFCO, USA.) with 1-5×10^5 CFU/ml of Staphylococcus aureus (Smith) or Staphylococcus aureus, Methicillin Resistant (ATCC 33591) was added. Thus, final maximal concentration of DMSO was 1% and the initial test substance concentration was 100 μg/ml or 30 μM. The plates were incubated at 37° C. for 20 hours and then visually examined and scored positive (+) for inhibition of growth or turbidity or negative (−) for no effect upon growth or turbidity. Vehicle-control and active reference agents were used as blank and positive controls, respectively. Each concentration was evaluated in duplicate.

[2] = system: Staphylococcus aureus, Methicillin Resistant (ATCC 33591); assay: Anti-microbial test, MIC by broth dilution method, methicillin resistant Staphylococcus aureus; details: for MIC: Staphylococcus aureus, ATCC 33591 / MRSA, read-out: MIC MRSA
Procedure: as §1, §2

[3] = system: Streptococcus pneumoniae (ATCC 6301); assay: Anti-microbial test, MIC by broth dilution method, Streptococcus pneumoniae; details: for MIC: Streptococcus pneumoniae, read-out: MIC SP
Procedure: (§3) Streptococcus pneumoniae (ATCC 6301) and Streptococcus pneumoniae (Erythromycin and Ampicillin Res. Clin. Isol.), In Vitro Bacteria
(§4) Minimum inhibitory concentration (MIC) of sample on Streptococcus pneumoniae and Streptococcus pneumoniae (Erythromycin and Ampicillin Res. Clin. Isol.) was determined by the broth dilution method [Edwards J. R. et al. In vitro antibacterial activity of SM-7338, a carbapenem antibiotic with stability to dehydropeptidase I. Antimicrobial Agents Chemotherapy. 33: pp. 215-222, 1989.]. The test substance was dissolved (generally 100% DMSO) and serially diluted in solvent to desired stock concentrations. For each concentration tested, a 0.01 ml aliquot (1% DMSO final concentration) was added to a 48-well plate after which 0.99 ml of Tryptic Soy Broth (DIFCO, U.S.A.) containing 7% fetal bovine serum with 1-5×10^5 CFU/ml of Streptococcus pneumoniae (ATCC 6301) or Streptococcus pneumoniae (Erythromycin and Ampicillin Res. Clin. Isol.) was added. Thus, final maximal concentration of DMSO was 1% and the initial test substance concentration was 100 μg/ml or 30 μM. The plates were incubated at 37° C. for 20 hours and then visually examined and scored positive (+) for inhibition of growth or turbidity or negative (−) for no effect upon growth or turbidity. Vehicle-control and active reference agents were used as blank and positive controls, respectively. Each concentration was evaluated in duplicate.

[4] = system: Streptococcus pneumoniae (Erythromycin and Ampicillin Res. Clin. Isol.); assay: Anti-microbial test, MIC by broth dilution method, resistant Streptococcus pneumoniae; details: for MIC: Streptococcus pneumoniae, read-out: MIC SP (EM & AM Res.)
Procedure: as §3, §4

[5] = clinical isolates, Tryptic Soy Broth with 7% fetal bovine serum, 37° C., 20 hours, 1% DMSO
[6] = Mueller-Hinton Broth, 37° C., 20 hours, 1% DMSO, visual growth/turbidity
[7] = ATCC6301, Tryptic Soy Broth with 7% fetal bovine serum, 37° C., 20 hours, 1% DMSO

| Compound | MIC ([1]; 20 h) [µg/mL] | MIC ([2]; 20 h) [µg/mL] | MIC ([3]; ATCC6301, 20 h) [µg/mL] | MIC [4, 5] [µg/mL] | MIC [1, 6] [µg/mL] | MIC [2, 6] [µg/mL] | MIC [3, 7] [µg/mL] | other results |
| --- | --- | --- | --- | --- | --- | --- | --- | --- |
| CC(C)=CCc1c(-c2ccc(O)cc2O)oc2c(C3C=C(C)C[C@@H](c4ccc(O)cc4O)C3C(=O)c3ccc(O)cc3O)c(O)cc(O)c2c1=O (stereo partly drawn) [P2-2] | 3 (≈ 4.33 µM) | > 100 | 30 (≈ 43.3 µM) | 30 (≈ 43.3 µM) | – | – | – | – |
| Gentamicin [reference compound] | – | – | – | – | – | – | – | MIC SA (Smith) [1, 6]: 0.1 µg/mL; MIC MRSA [2, 6]: 1 µg/mL; MIC on MRSA relative to MIC on SA (Smith) ([2]; ratio MRSA / SA (Smith)): 10 times; MIC SP ([3]; Tryptic Soy Broth with 7% fetal bovine serum, 37° C., 20 hours, 1% DMSO): 100 µg/mL; MIC SP (EM & AM Res.) [4, 5]: 100 µg/mL |
| CC(C)=CCc1c(-c2ccc(O)cc2O)oc2c3c(cc(O)c2c1=O)OC(C)(C)C=C3 [P3-3, 2-(2,4-dihydroxy-phenyl)-5-hydroxy-8,8-dimethyl-3-(3-methyl-but-2-enyl)-8H-pyrano[2,3-f]chromen-4-one] | – | – | – | 30 (≈ 71.4 µM) | 10 (≈ 23.8 µM) | 100 (≈ 238 µM) | 100 (≈ 238 µM) | – |
| CC(C)=CCc1c(O)ccc(C(=O)C2C(c3c(O)cc(O)c4c(=O)c(CC=C(C)C)c(-c5ccc(O)cc5O)oc34)C=C(C)CC2c2ccc(O)cc2O)c1O (stereo not drawn) [P3-2, 8-[6-[2,4-dihydroxy-3-(3-methyl-but-2-enyl)-benzoyl]-5-(2,4-dihydroxy-phenyl)-3-methyl-cyclohex-2-enyl]-2-(2,4-dihydroxy-phenyl)-5,7-dihydroxy-3-(3-methyl-but-2-enyl)-chromen-4-one] | – | – | – | 10 (≈ 13.1 µM) | 0.3 (≈ 0.394 µM) | 0.3 (≈ 0.394 µM) | 10 (≈ 13.1 µM) | – |
| CC(C)=CCC/C(C)=C/Cc1c(O)ccc2cc(-c3cc(O)cc(O)c3CC=C(C)C)oc12 [P3-4] | 3 (≈ 6.72 µM) | 100 (≈ 224 µM) | 30 (≈ 67.2 µM) | – | – | – | – | MIC ([4]; 20 h): 10 µg/mL (≈ 22.4 µM) |
| CC1=CC(c2c(O)cc(-c3cc4ccc(O)cc4o3)cc2O)C(C(=O)c2ccc(O)cc2O)[C@H](c2ccc(O)cc2O)C1 (stereo partly drawn) [P2-1] | 3 (≈ 5.17 µM) | > 100 | 100 (≈ 172 µM) | – | – | – | – | MIC ([4]; 20 h): 30 µg/mL (≈ 51.7 µM) |
| CC1(C)S[C@@H]2[C@H](NC(=O)[C@H](N)c3ccccc3)C(=O)N2[C@H]1C(=O)O [Ampicillin, reference compound] | – | – | – | 3 (≈ 8.59 µM) | 0.1 (≈ 0.286 µM) | 30 (≈ 85.9 µM) | 0.01 (≈ 0.0286 µM) | – |
| CC(C)=CCCC1=CC(c2c(O)cc3c(c2O)C(=O)CC(c2ccc(O)cc2O)O3)C(C(=O)c2ccc(O)cc2O)C(c2ccc(O)cc2O)C1 (stereo not drawn) [P3-1] | – | – | – | 10 (≈ 14.4 µM) | 1 (≈ 1.44 µM) | 3 (≈ 4.32 µM) | 30 (≈ 43.2 µM) | – |
